# Experimental data from patent US20240124389A1, “COMPOUND OR SALT THEREOF, LIPID PARTICLES, AND PHARMACEUTICAL COMPOSITION” (FUJIFILM Corporation, priority 2021, published 2024).
# Key:
# [1] = Particle size of EPO mRNA-encapsulating lipid particles; format: physicochemical; conditions: lipid/nucleic acid 32 wt/wt
# Protocol: (§1) The compounds described in Table 1, the neutral lipid, cholesterol (product name: Cholesterol HP; NIPPON FINE CHEMICAL CO., LTD.), and 1,2-dimyristoyl-rac-glycero-3-(methylpolyoxyethylene 2000) (hereinafter, called DMG-PEG2000) (product name: SUNBRIGHT® GM-020; NOF corporation) were dissolved in ethanol at a molar ratio in Table 1 such that the total lipid concentration became 20 mmol/L, thereby obtaining an oil phase.
# (§2) As the neutral lipid, 1,2-distearoyl-sn-glycero-3-phosphocholine (product name: COATSOME® MC-8080; NOF corporation) (hereinafter, DSPC), or L-α-dioleoyl phosphatidylethanolamine (Hereinafter, DOPE) (product name: COATSOME® ME-8181; NOF corporation), or 1,2-dioleoyl-sn-glycero-3-phosphocholine (hereinafter, DOPC) (product name: COATSOME® MC-8181; NOF corporation) was used.
# (§3) EPO mRNA (product name: CleanCap EPO mRNA (5moU); TriLink) was diluted with 50 mmol/L citrate buffer having a pH 4 such that the weight ratio of total lipid concentration to mRNA concentration is about 16:1 to 64:1, thereby obtaining a water phase. Then, the water phase and the oil phase were mixed together using NanoAssemblr (Precision NanoSystems) such that the volume ratio of water phase:oil phase was 3:1, and the mixed solution was 1.5-fold diluted with phosphate buffered saline (PBS), thereby obtaining a dispersion liquid of mRNA lipid particles. The dispersion liquid was dialyzed with a 10% aqueous sucrose solution using a dialysis cassette (Slide-A-Lyzer G2, MWCO: 10 kD, Thermo Fisher Scientific) to remove ethanol, thereby obtaining EPO mRNA-encapsulating lipid particles.
# (§4) The particle size of the mRNA-encapsulating lipid particles was measured by 10-fold diluting the dispersion liquid of lipid particle with phosphate buffered saline (PBS) using Zeta-potential & Particle size Analyzer ELS-Z2 (Otsuka Electronics Co., Ltd.).
# EPO mRNA = experiment: mRNA encapsulation rate of EPO mRNA-encapsulating lipid particles; format: physicochemical; conditions: lipid/nucleic acid 32 wt/wt
# Protocol: as §1, §2, §3
# (§5) 15 to 30 μL of a 3 mol/L aqueous sodium acetate solution and 4.5 to 9 μL of glycogen were added to 30 to 60 μL of the lipid particles retaining mRNA, and 0.75 to 1.5 mL of ethanol was added thereto, so that only the nucleic acids were precipitated while the lipid was dissolved. Then, the supernatant was removed by centrifugation. The precipitates were air-dried for 15 minutes or longer, then water was added thereto to redissolve the precipitates, and the concentration thereof was measured using Nanodrop NF1000 (Thermo Fisher Scientific), thereby quantifying the total mRNA concentration.
# (§6) The mRNA concentration was quantified using a Quant-iT RiboGreen RNA Assay Kit (Thermo Fisher Scientific) according to the protocol. First, a 20×TE buffer included in the above-described kit was diluted with water, thereby obtaining a 1×TE buffer. TE represents Tris/EDTA (ethylenediaminetetraacetic acid). In order to quantify only mRNA in the outer water phase, the dispersion liquid of lipid particles retaining mRNA was 10,000-fold diluted with the 1×TE buffer. 100 μL of the 10,000-fold diluted dispersion liquid of lipid particles was put into a 96-well plate, then 100 μL of a RiboGreen reagent (reagent included in the Quanti-iT Ribogreen RNA Assay Kit described above) 2,000-fold diluted with the 1×TE buffer was added to a sample, and fluorescence (excitation wavelength: 485 nm, fluorescence wavelength: 535 nm) was measured using a plate reader Infinite F200 (TECAN), thereby quantifying the mRNA concentration in the outer water phase.
# (§7) By using the quantification results of the total mRNA concentration and the mRNA concentration in the outer water phase that were obtained through the above steps, the mRNA encapsulation rate of the mRNA lipid particles was calculated according to the following Equation.
# (§8) mRNA encapsulation rate (%)=(total mRNA concentration-mRNA concentration in outer water phase)/total mRNA concentration×100
# human EPO = experiment: Measurement of EPO enzyme activity (EPO protein in blood plasma of mice after intravenous administration of EPO mRNA lipid particles); format: in vivo; conditions: C57BL/6J mice, tail-vein i.v., mRNA 0.1 mg/kg, plasma 20 to 24 hours, lipid/nucleic acid 32 wt/wt
# Protocol: as §1, §2, §3
# The dispersion liquid of mRNA lipid particles prepared in above-described <Preparation of EPO mRNA-encapsulating lipid particles> was tail-vein intravenously administered to C57BL/6J mice at a mRNA dosage of 0.1 mg/kg. 20 to 24 hours after the administration, blood was collected from the caudal vena cava, thereby obtaining blood plasma. The human EPO enzyme activity was quantified by using the obtained blood plasma and ab119522 Erythropoietin (EPO) Human Elisa Kit (Abcam.plc). The quantitative value is described as a relative amount of EPO protein in a case where Comparative Example 1 is 1.
# [2] = Particle size of FLuc mRNA-encapsulating lipid particles; format: physicochemical; conditions: lipid/nucleic acid 32 wt/wt
# Protocol: as §1, with “Table 2,” for “Table 1,”, “HP; NTPPON” for “HP; NIPPON”, “DMG-PEG2000)” for “DMG-PEG2000) (product name: SUNBRIGHT® GM-020; NOF corporation)”, “Table 2” for “Table 1”
# (§9) As the neutral lipid, 1,2-distearoyl-sn-glycero-3-phosphocholine (product name: COATSOME® MC-8080; NOF corporation) was used in a case of Comparative Example 1, and L-α-dioleoylphosphatidylethanolamine (product name: COATSOME® MC-8181; NOF corporation) was used in a case other than Comparative Example 1.
# as §3, with “FLuc” for “EPO”, “(5 moU);” for “(5moU);”, “19:1” for “16:1”, “64:1,” for “64:1, thereby”
# as §4
# FLuc mRNA [3] = experiment: mRNA encapsulation rate of FLuc mRNA-encapsulating lipid particles; format: physicochemical; conditions: aminolipid 45 / DOPE 10 / cholesterol 43.5 / DMG-PEG2000 1.5 mol %, lipid/nucleic acid 32 wt/wt
# Protocol: as §1, with “Table 2,” for “Table 1,”, “HP; NTPPON” for “HP; NIPPON”, “DMG-PEG2000)” for “DMG-PEG2000) (product name: SUNBRIGHT® GM-020; NOF corporation)”, “Table 2” for “Table 1”
# as §9
# as §3, with “FLuc” for “EPO”, “(5 moU);” for “(5moU);”, “19:1” for “16:1”, “64:1,” for “64:1, thereby”
# as §5, §6, §7, §8
# [4] = Particle size of FLuc mRNA-encapsulating lipid particles; format: physicochemical; conditions: aminolipid 45 / DOPC 10 / cholesterol 43.5 / DMG-PEG2000 1.5 mol %, lipid/nucleic acid 32 wt/wt
# FLuc mRNA [5] = experiment: mRNA encapsulation rate of FLuc mRNA-encapsulating lipid particles; format: physicochemical; conditions: lipid/nucleic acid 32 wt/wt
# [6] = aminolipid 45 / DOPC 10 / cholesterol 43.5 / DMG-PEG2000 1.5 mol %
# [7] = aminolipid 45 / DOPE 10 / cholesterol 43.5 / DMG-PEG2000 1.5 mol %
# [8] = aminolipid 45 / no neutral lipid / cholesterol 53.5 / DMG-PEG2000 1.5 mol %
# [9] = aminolipid 45 / neutral lipid — (composition printed 10) / cholesterol 53.5 / DMG-PEG2000 1.5 mol %
smiles,measurement,setting,value
"CCCCCC(CCCCC)COC(=O)CCCC(CCC)OC(=O)OCCN(CCCN(CC)CC)CCOC(=O)OC(CCC)CCCC(=O)OCC(CCCCC)CCCCC (stereo not drawn) [Example 28, Bis(2-pentylheptyl) 11-(3-(diethylamino)propyl)-7,15-dioxo-5,17-dipropyl-6,8,14,16-tetraoxa-11-azahenicosanedi oate]",Particle size,[1]; [6],82.1 nm
same,Particle size,[1]; [7],115.7 nm
same,Particle size,[1]; [8],155.2 nm
same,Nucleic acid encapsulation rate,EPO mRNA; [6],99.2%
same,Nucleic acid encapsulation rate,EPO mRNA; [7],98.8%
same,Nucleic acid encapsulation rate,EPO mRNA; [8],99.2%
same,Relative amount of EPO protein (with respect to Comparative Example 1),human EPO; [6],3.54
same,Relative amount of EPO protein (with respect to Comparative Example 1),human EPO; [7],1.23
same,Relative amount of EPO protein (with respect to Comparative Example 1),human EPO; [8],1.47
same,Particle size,[2]; [7],82.9 nm
same,Particle size,[2]; [9],164.6 nm
same,Nucleic acid encapsulation rate,FLuc mRNA [3],100.0%
same,Particle size,[4],104.3 nm
same,Nucleic acid encapsulation rate,FLuc mRNA [5]; [6],99.1%
same,Nucleic acid encapsulation rate,FLuc mRNA [5]; [9],99.1%
